Values quoted from earlier work, collected in patent US8986935B2, “Methods for treating spinal muscular atrophy” (PTC Therapeutics, Inc., priority 2008, dated 2015).

Tested on: SMN protein

CC[C@@]1(O)C[C@H](O[C@H]2C[C@H](N(C)C)[C@H](O[C@H]3C[C@H](O)[C@H](O[C@H]4CCC(=O)[C@H](C)O4)[C@H](C)O3)[C@H](C)O2)c2c(cc3c(c2O)C(=O)c2c(O)cccc2C3=O)[C@H]1C(=O)OC [aclarubicin]
SMN protein in cell culture: increase SMN protein
